From US4163801A, “Treatment of animals with 2,6-bis(2-hydroxybenzyl)phenols to eradicate trematodes” (ICI Australia Limited, priority 1976, dated 1979)

Experiments:
[1] = system: sheep liver fluke (Fasciola hepatica); assay: Flukicidal activity in sheep infected with sheep liver fluke: faecal egg count and post mortem adult fluke count after single dose (Table II); assay type: in vivo; details: for Post Mortem Results: No of adult fluke: sheep liver; for Faecal Egg Count: sheep
Experimental: Compositions suitable for use as experimental aqueous oral drenches were prepared in the following general manner. A mixture of the required amount of active ingredient was mixed with 40 ml of an aqueous 0.25% w/w solution of "Lubrol E" ("Lubrol E" is a Registered Trade Mark for an octylphenol ethoxylate). The mixture was ball-milled for 30 minutes and the resultant suspension was used as an aqueous drench.
Compositions suitable for use as experimental injectable solutions were prepared by dissolving the chemical in propylene glycol and adjusting the concentration to 10% w/v active ingredient.
Compositions prepared by the methods of Examples 21 and 22 were used as a single dose to test sheep infected with sheep liver fluke (Fasciola hepatica). The number of liver fluke eggs in the faeces was measured at the time of treatment and at selected intervals up to 14 days after treatment. The sheep were killed on day 14 and the number of adult fluke in the liver counted. The amount and structure of active ingredient in each composition and the results of treatment of a sheep with that composition are given in the Table II below. The compositions were administered either by oral drench (oral) or by sub-cutaneous injection (s/c).

immature fluke = assay: Effectiveness against immature fluke (Table II footnotes); assay type: in vivo, Fasciola hepatica; details: oral route

## Oc1c(Br)cc(F)cc1Cc1cc(Cl)cc(Cc2cc(F)cc(Br)c2O)c1O [Compound 2, 2,6-bis(3-bromo-5-fluoro-2-hydroxybenzyl)-4-chlorophenol]
[1]; 3.1 mg/kg oral, killed day 14
  Post Mortem Results: No of adult fluke: 0
[1]; 6.5 mg/kg oral, killed day 14
  Post Mortem Results: No of adult fluke: 0
[1]; 12.5 mg/kg oral, killed day 14
  Post Mortem Results: No of adult fluke: 0
[1]; 12.5 mg/kg s/c, killed day 14
  Post Mortem Results: No of adult fluke: 0
[1]; 3.1 mg/kg oral, day 7
  Faecal Egg Count: 20 Eggs per g faeces
[1]; 3.1 mg/kg oral, day 14
  Faecal Egg Count: 0 Eggs per g faeces
[1]; 6.5 mg/kg oral, day 7
  Faecal Egg Count: 40 Eggs per g faeces
[1]; 6.5 mg/kg oral, day 14
  Faecal Egg Count: 0 Eggs per g faeces
[1]; 12.5 mg/kg oral, day 2
  Faecal Egg Count: 130 Eggs per g faeces
[1]; 12.5 mg/kg oral, day 7
  Faecal Egg Count: 0 Eggs per g faeces
[1]; 12.5 mg/kg oral, day 13
  Faecal Egg Count: 0 Eggs per g faeces
[1]; 12.5 mg/kg s/c, day 3
  Faecal Egg Count: 3800 Eggs per g faeces
[1]; 12.5 mg/kg s/c, day 7
  Faecal Egg Count: 0 Eggs per g faeces
[1]; 12.5 mg/kg s/c, day 14
  Faecal Egg Count: 0 Eggs per g faeces

## Oc1c(Br)cc(Cl)cc1Cc1cc(F)cc(Cc2cc(Cl)cc(Br)c2O)c1O [Compound 4, 2,6-bis(3-bromo-5-chloro-2-hydroxybenzyl)-4-fluorophenol]
Immature fluke; 5.0 mg/kg
  effective against immature fluke: 49%
Immature fluke; 7.5 mg/kg
  effective against immature fluke: 85%
Immature fluke; 10 mg/kg
  effective against immature fluke: 98%
[1]; 1.0 mg/kg oral, killed day 14
  Post Mortem Results: No of adult fluke: 0
[1]; 2.0 mg/kg s/c, killed day 14
  Post Mortem Results: No of adult fluke: 0
[1]; 3.1 mg/kg oral, killed day 14
  Post Mortem Results: No of adult fluke: 0
[1]; 6.3 mg/kg oral, killed day 14
  Post Mortem Results: No of adult fluke: 0
[1]; 12.5 mg/kg oral, Day 29
  Post Mortem Results: No of adult fluke: 0
[1]; 2.0 mg/kg s/c, day 7
  Faecal Egg Count: 20 Eggs per g faeces
[1]; 2.0 mg/kg s/c, day 14
  Faecal Egg Count: 0 Eggs per g faeces
[1]; 3.1 mg/kg oral, day 2
  Faecal Egg Count: 0 Eggs per g faeces
[1]; 3.1 mg/kg oral, day 7
  Faecal Egg Count: 10 Eggs per g faeces
[1]; 3.1 mg/kg oral, day 14
  Faecal Egg Count: 0 Eggs per g faeces
[1]; 6.3 mg/kg oral, day 2
  Faecal Egg Count: 70 Eggs per g faeces
[1]; 6.3 mg/kg oral, day 7
  Faecal Egg Count: 0 Eggs per g faeces
[1]; 12.5 mg/kg oral, day 2
  Faecal Egg Count: 2520 Eggs per g faeces
[1]; 12.5 mg/kg oral, day 7
  Faecal Egg Count: 200 Eggs per g faeces
[1]; 12.5 mg/kg oral, day 14
  Faecal Egg Count: 0 Eggs per g faeces

## O=[N+]([O-])c1cc(Cl)cc(Cc2cc(Cl)cc(Cc3cc(Cl)cc([N+](=O)[O-])c3O)c2O)c1O [Compound 9, 2,6-Bis(5-chloro-2-hydroxy-3-nitrobenzyl)-4-chlorophenol]
[1]; 12.5 mg/kg s/c, killed day 14
  Post Mortem Results: No of adult fluke: 3
[1]; 12.5 mg/kg s/c, day 7
  Faecal Egg Count: 0 Eggs per g faeces
[1]; 12.5 mg/kg s/c, day 14
  Faecal Egg Count: 10 Eggs per g faeces

## Oc1c(Br)cc(Br)cc1Cc1cc(Cl)cc(Cc2cc(Br)cc(Br)c2O)c1O [Compound 11]
[1]; 12.5 mg/kg oral, killed day 14
  Post Mortem Results: No of adult fluke: 12
[1]; 12.5 mg/kg oral, day 7
  Faecal Egg Count: 130 Eggs per g faeces
[1]; 12.5 mg/kg oral, day 14
  Faecal Egg Count: 40 Eggs per g faeces

## Oc1c(Br)cc(Cl)cc1Cc1cc(Cl)cc(Cc2cc(Cl)cc(Br)c2O)c1O [Compound 12]
[1]; 4.0 mg/kg oral, killed day 14
  Post Mortem Results: No of adult fluke: 0
[1]; 12.5 mg/kg oral, killed day 14
  Post Mortem Results: No of adult fluke: 0
[1]; 4.0 mg/kg oral, day 7
  Faecal Egg Count: 0 Eggs per g faeces
[1]; 4.0 mg/kg oral, day 14
  Faecal Egg Count: 0 Eggs per g faeces
[1]; 12.5 mg/kg oral, day 7
  Faecal Egg Count: 40 Eggs per g faeces
[1]; 12.5 mg/kg oral, day 14
  Faecal Egg Count: 0 Eggs per g faeces

## Oc1c(Br)cc(Br)cc1Cc1cc(F)cc(Cc2cc(Br)cc(Br)c2O)c1O [Compound 14]
[1]; 4.0 mg/kg oral, killed day 14
  Post Mortem Results: No of adult fluke: 1
[1]; 12.5 mg/kg oral, killed day 14
  Post Mortem Results: No of adult fluke: 0
[1]; 4.0 mg/kg oral, day 7
  Faecal Egg Count: 0 Eggs per g faeces
[1]; 4.0 mg/kg oral, day 14
  Faecal Egg Count: 0 Eggs per g faeces
[1]; 12.5 mg/kg oral, day 7
  Faecal Egg Count: 60 Eggs per g faeces
[1]; 12.5 mg/kg oral, day 14
  Faecal Egg Count: 0 Eggs per g faeces

## Oc1c(Cl)cc(F)cc1Cc1cc(Cl)cc(Cc2cc(F)cc(Cl)c2O)c1O [Compound 17]
[1]; 12.5 mg/kg oral, killed day 14
  Post Mortem Results: No of adult fluke: 2
[1]; 12.5 mg/kg oral, day 7
  Faecal Egg Count: 150 Eggs per g faeces
[1]; 12.5 mg/kg oral, day 14
  Faecal Egg Count: 20 Eggs per g faeces
[1]; 12.5 mg/kg oral, day 18
  Faecal Egg Count: 20 Eggs per g faeces

## Oc1c(Cl)cc(Cl)cc1Cc1cc(F)cc(Cc2cc(Cl)cc(Cl)c2O)c1O [Compound 18, 2,6-bis(3,5-dichloro-2-hydroxybenzyl)-4-fluorophenol]
[1]; 12.5 mg/kg oral, killed day 14
  Post Mortem Results: No of adult fluke: 0
[1]; 12.5 mg/kg oral, day 7
  Faecal Egg Count: 0 Eggs per g faeces
[1]; 12.5 mg/kg oral, day 14
  Faecal Egg Count: 0 Eggs per g faeces

## Oc1c(Br)cc(F)cc1Cc1cc(F)cc(Cc2cc(F)cc(Br)c2O)c1O [Compound 22]
[1]; 6.3 mg/kg oral, killed day 14
  Post Mortem Results: No of adult fluke: 0
[1]; 12.5 mg/kg oral, killed day 14
  Post Mortem Results: No of adult fluke: 0
[1]; 6.3 mg/kg oral, day 7
  Faecal Egg Count: 0 Eggs per g faeces
[1]; 6.3 mg/kg oral, day 14
  Faecal Egg Count: 0 Eggs per g faeces
[1]; 12.5 mg/kg oral, day 7
  Faecal Egg Count: 1340 Eggs per g faeces
[1]; 12.5 mg/kg oral, day 14
  Faecal Egg Count: 0 Eggs per g faeces

## Oc1c(I)cc(F)cc1Cc1cc(Cl)cc(Cc2cc(F)cc(I)c2O)c1O [Compound 24]
[1]; 12.5 mg/kg oral, killed day 14
  Post Mortem Results: No of adult fluke: 0
[1]; 12.5 mg/kg oral, day 7
  Faecal Egg Count: 20 Eggs per g faeces
[1]; 12.5 mg/kg oral, day 14
  Faecal Egg Count: 0 Eggs per g faeces

## Oc1c(Br)cc(F)cc1Cc1cc(Br)cc(Cc2cc(F)cc(Br)c2O)c1O [Compound 25]
[1]; 12.5 mg/kg oral, killed day 14
  Post Mortem Results: No of adult fluke: 0
[1]; 12.5 mg/kg oral, day 7
  Faecal Egg Count: 0 Eggs per g faeces
[1]; 12.5 mg/kg oral, day 14
  Faecal Egg Count: 0 Eggs per g faeces

## Oc1c(I)cc(Cl)cc1Cc1cc(F)cc(Cc2cc(Cl)cc(I)c2O)c1O [Compound 29]
Immature fluke; 10 mg/kg
  effective against immature fluke: 81%
[1]; 6.3 mg/kg oral, killed day 14
  Post Mortem Results: No of adult fluke: 0
[1]; 12.5 mg/kg oral, killed day 14
  Post Mortem Results: No of adult fluke: 0
[1]; 6.3 mg/kg oral, day 7
  Faecal Egg Count: 0 Eggs per g faeces
[1]; 6.3 mg/kg oral, day 14
  Faecal Egg Count: 0 Eggs per g faeces
[1]; 12.5 mg/kg oral, day 7
  Faecal Egg Count: 10 Eggs per g faeces
[1]; 12.5 mg/kg oral, day 14
  Faecal Egg Count: 0 Eggs per g faeces

## CC(c1cc(Cl)cc(Cl)c1O)c1cc(F)cc(Cc2cc(Cl)cc(Br)c2O)c1O (stereo not drawn) [Compound 30, 2-(3-Bromo-5chloro-2-hydroxybenzyl)-6-[1-(3,5-dichloro-2-hydroxyphenyl)ethyl]-4-fluorophenol]
[1]; 12.5 mg/kg oral, killed day 14
  Post Mortem Results: No of adult fluke: 0
[1]; 12.5 mg/kg oral, day 7
  Faecal Egg Count: 0 Eggs per g faeces
[1]; 12.5 mg/kg oral, day 14
  Faecal Egg Count: 0 Eggs per g faeces

## CC(=O)Oc1c(Cc2cc(Cl)cc(Br)c2O)cc(F)cc1Cc1cc(Cl)cc(Br)c1O [Compound 31]
[1]; 12.5 mg/kg oral, killed day 14
  Post Mortem Results: No of adult fluke: 0
[1]; 12.5 mg/kg oral, day 7
  Faecal Egg Count: 220 Eggs per g faeces
[1]; 12.5 mg/kg oral, day 14
  Faecal Egg Count: 10 Eggs per g faeces

## Oc1c(I)cc(F)cc1Cc1cc(F)cc(Cc2cc(F)cc(I)c2O)c1O [Compound 38]
[1]; 6.3 mg/kg oral, killed day 14
  Post Mortem Results: No of adult fluke: 0
[1]; 4.0 mg/kg oral, day 7
  Faecal Egg Count: 50 Eggs per g faeces
[1]; 4.0 mg/kg oral, day 14
  Faecal Egg Count: 80 Eggs per g faeces
[1]; 6.3 mg/kg oral, day 7
  Faecal Egg Count: 190 Eggs per g faeces
[1]; 6.3 mg/kg oral, day 14
  Faecal Egg Count: 0 Eggs per g faeces

## CC(c1cc(F)cc(Br)c1O)c1cc(Cl)cc(Cc2cc(F)cc(Br)c2O)c1O (stereo not drawn) [Compound 39]
[1]; 3.0 mg/kg oral, killed day 14
  Post Mortem Results: No of adult fluke: 0
[1]; 6.0 mg/kg oral, killed day 14
  Post Mortem Results: No of adult fluke: 0
[1]; 3.0 mg/kg oral, day 7
  Faecal Egg Count: 210 Eggs per g faeces
[1]; 3.0 mg/kg oral, day 14
  Faecal Egg Count: 0 Eggs per g faeces
[1]; 6.0 mg/kg oral, day 7
  Faecal Egg Count: 60 Eggs per g faeces
[1]; 6.0 mg/kg oral, day 14
  Faecal Egg Count: 0 Eggs per g faeces

## CC(c1cc(F)cc(Br)c1O)c1cc(Cl)cc(C(C)c2cc(F)cc(Br)c2O)c1O (stereo not drawn) [Compound 40, 2,6-Bis[1-(3-bromo-5-fluoro-2-hydroxyphenyl)ethyl]-4-chlorophenol]
[1]; 12.5 mg/kg oral, killed day 14
  Post Mortem Results: No of adult fluke: 11
[1]; 12.5 mg/kg oral, day 7
  Faecal Egg Count: 0 Eggs per g faeces
[1]; 12.5 mg/kg oral, day 14
  Faecal Egg Count: 0 Eggs per g faeces

## CC(c1cc(Cl)cc(Cl)c1O)c1cc(F)cc(Cc2cc(F)cc(Br)c2O)c1O (stereo not drawn) [Compound 46]
[1]; 12.5 mg/kg oral, killed day 14
  Post Mortem Results: No of adult fluke: 0
[1]; 12.5 mg/kg oral, day 7
  Faecal Egg Count: 0 Eggs per g faeces
[1]; 12.5 mg/kg oral, day 14
  Faecal Egg Count: 0 Eggs per g faeces
